In the supplement of paper PMC10307832 one finds relative viability data, which are given here for one cell line.

Assay in all cases: relative viability (nuclei count vs DMSO), 5 days (fraction); higher = more cells survive
Compound in assay [1]: C1/C(=C\C2=CC=CS2)/C(=O)/C(=C/C3=CC=CS3)/C1 + CS(=O)(=O)CCNCc1ccc(-c2ccc3ncnc(Nc4ccc(OCc5cccc(F)c5)c(Cl)c4)c3c2)o1 [Lapatinib] (partner 2 µM)
A digest of the protocol: (§1)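 Medians of duplicate plates are given as relative viability. That measure is the nuclei count in treated wells divided by the count in vehicle wells. Counts were taken on 4× images of lung cancer cell lines in 1536-well plates, 5 days after pin-tool dosing the day after seeding with one drug alone or a fixed anchor-drug dose plus five library-drug doses (not always all listed) in √10 steps.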

Compound in the assay “Lestaurtinib + Lapatinib”: C[C@]12O[C@H](C[C@]1(O)CO)n1c3ccccc3c3c4c(c5c6ccccc6n2c5c31)CNC4=O [Lestaurtinib] + CS(=O)(=O)CCNCc1ccc(-c2ccc3ncnc(Nc4ccc(OCc5cccc(F)c5)c(Cl)c4)c3c2)o1 [Lapatinib] (partner 2 µM)
In a few lines:
as §1

Compound in the assay “TPCA-1 + Vorinostat”: C1=CC(=CC=C1C2=CC(=C(S2)NC(=O)N)C(=O)N)F [TPCA-1] + O=C(CCCCCCC(=O)Nc1ccccc1)NO [Vorinostat] (partner 1 µM)
In a few lines: as §1

Compound in the assay “TPCA-1 + Crizotinib”: C1=CC(=CC=C1C2=CC(=C(S2)NC(=O)N)C(=O)N)F [TPCA-1] + C[C@@H](Oc1cc(-c2cnn(C3CCNCC3)c2)cnc1N)c1c(Cl)ccc(F)c1Cl [Crizotinib] (partner 1 µM)
A digest of the protocol: as §1

On to UMC-11, for which the relative viability in assay [1] (first compound 0.2 µM) was found to be 0.88; in assay [1] (first compound 0.6325 µM), 0.98; in assay [1] (first compound 2 µM), 1.19; in assay [1] (first compound 6.325 µM), 0.628; in assay [1] (first compound 20 µM), 1.1; with Lestaurtinib + Lapatinib (first compound 0.005 µM), 1.01. In addition, the relative viability was 0.921 in the assay with Lestaurtinib + Lapatinib (first compound 0.01581 µM); 0.65 in the assay with Lestaurtinib + Lapatinib (first compound 0.05 µM); 0.305 with Lestaurtinib + Lapatinib (first compound 0.1581 µM); 0.196 with Lestaurtinib + Lapatinib (first compound 0.5 µM); 0.447 with TPCA-1 + Vorinostat (first compound 0.04 µM); 0.358 with TPCA-1 + Vorinostat (first compound 0.1265 µM). In addition, the relative viability with TPCA-1 + Vorinostat (first compound 0.4 µM) is 0.368; with TPCA-1 + Vorinostat (first compound 1.265 µM) it was 0.378; with TPCA-1 + Vorinostat (first compound 4 µM), 0.214; with TPCA-1 + Crizotinib (first compound 0.04 µM), 0.579; with TPCA-1 + Crizotinib (first compound 0.1265 µM), 0.586; with TPCA-1 + Crizotinib (first compound 0.4 µM) it was 0.578. Moreover, the relative viability with TPCA-1 + Crizotinib (first compound 1.265 µM) turned out to be 0.573; in the assay with TPCA-1 + Crizotinib (first compound 4 µM), 0.274.
